Type in all cases: in vivo
The subject of experiment [1] is Pseudoperonospora cubensis (PSPECU). The experiment can be described thus: Cucumber downy mildew foliar protectant test. Conditions: 200 ppm foliar, inoculated one day after treatment, read-out: Activity against fungal diseases PSPECU. As for the experimental part:
The plants were inoculated with the fungus one day after treatment. ***=80-100% control; **=50-79% control; *=0-49% control. It will be understood by those in the art that the efficacy of the compounds against the foregoing fungi establishes the general utility of the compounds as fungicides. The activity of the compounds as effective fungicides was determined by applying the compounds to plants and observing control of fungal disease. […] All plants were inoculated with spores of the fungus the day after treatment, then incubated in an environment conducive to disease development. Disease severity was evaluated 4 to 25 days later, depending on the speed of disease development. The following experiments were performed in the laboratory to determine the fungicidal efficacy of the compounds of the invention. Cucumber Downy Mildew (Causal Agent Pseudoperonospora cubensis; Bayer Code […]): Cucumber plants (variety “Bush Champion' or 'Bush Pickle Hybrid') were grown from seed in a soil-less peat-based potting mixture (Metromix) until the first true leaf was 20-80% expanded. Each pot contained 1 seedling. These plants were sprayed until wet with the formulated test compound. On the following day, the leaves were inoculated with an aqueous suspension of downy mildew sporangia and the plants were kept in high humidity for one day to permit sporangia to germinate and infect the leaf. The plants were then incubated in a growth chamber until disease developed on untreated control plants. Table 1 presents the activity of typical compounds of the present invention when evaluated in these experiments. The effectiveness of the test compounds at controlling disease when sprayed on leaves was determined by assessing the severity of disease on treated plants, then converting the severity to percent control based on the level of disease on untreated, inoculated plants.

Experiment [2] relates to Magnaporthe grisea = Pyricularia oryzae (PYRIOR). As to the kind of experiment: whole plant or invertebrate. Conditions: foliar, read-out: Activity against fungal diseases PYRIOR.
In experiment [3] the test system is Puccinia recondita tritici (PUCCRT). As to the kind of experiment: Leaf rust of wheat foliar protectant test. Conditions: 200 ppm foliar, inoculated one day after treatment, read-out: Activity against fungal diseases PUCCRT. As for the experimental part:
(§1) The plants were inoculated with the fungus one day after treatment. ***=80-100% control; **=50-79% control; *=0-49% control. It will be understood by those in the art that the efficacy of the compounds against the foregoing fungi establishes the general utility of the compounds as fungicides. The activity of the compounds as effective fungicides was determined by applying the compounds to plants and observing control of fungal disease. […] All plants were inoculated with spores of the fungus the day after treatment, then incubated in an environment conducive to disease development. Disease severity was evaluated 4 to 25 days later, depending on the speed of disease development. The following experiments were performed in the laboratory to determine the fungicidal efficacy of the compounds of the invention. […] Each pot contained 3-8 seedlings. These plants were sprayed until wet with the formulated test compounds. On the following day, the leaves were inoculated with an aqueous spore suspension of Puccinia recondita tritici and the plants were kept in high humidity overnight to permit spores to germinate and infect the leaf. The plants were then transferred to a greenhouse until disease developed on untreated control plants. Table 1 presents the activity of typical compounds of the present invention when evaluated in these experiments. The effectiveness of the test compounds at controlling disease when sprayed on leaves was determined by assessing the severity of disease on treated plants, then converting the severity to percent control based on the level of disease on untreated, inoculated plants.

Experiment [4] has as its system Septoria tritici (SEPTTR). The experiment can be described thus: Septoria blotch of wheat foliar protectant test. Conditions: Zymoseptoria tritici, read-out: Activity against fungal diseases SEPTTR; for pest or weed control at 200 ppm: 200 ppm foliar, inoculated one day after treatment; for pest or weed control at 25 ppm: foliar, Tested at 25 ppm (footnote b). As to the method: as §1, with “3-10” for “3-8”, “compound.” for “compounds.”, “Septoria” for “Puccinia recondita”, “(one day in a dark dew chamber followed by three days in a lighted dew chamber)” for “overnight”

Consider `Cc1cc(C(F)(F)F)cc(Oc2ccc(CCNc3ncnc4c(F)ccc(F)c34)cc2)n1` [Compound 7], for which the pest or weed control at 200 ppm in experiment [1], in experiment [2], in experiment [3] and in experiment [4] was 80 to 100% in each case.
Take `Fc1ccc(F)c2c(NCCOc3ccc(Oc4cc(C(F)(F)F)ccn4)cc3)ncnc12` [Compound 8]: the pest or weed control at 200 ppm fell in the range of 80 to 100% in experiment [1], 80 to 100% in experiment [2], 80 to 100% in experiment [3] and 50 to 79% in experiment [4].
Regarding `COc1cc(C(F)(F)F)cc(Oc2ccc(CCNc3ncnc4c(F)ccc(F)c34)cc2)n1` [Compound 9], the pest or weed control at 200 ppm is 80 to 100% in experiment [1], 80 to 100% in experiment [2], 80 to 100% in experiment [3] and 50 to 79% in experiment [4].
As to `CC(F)(F)c1cc[n+]([O-])c(Oc2ccc(CCNc3ncnc4c(F)ccc(F)c34)cc2)c1` [Compound 10], the pest or weed control at 200 ppm is 80 to 100% in experiment [1], 50 to 79% in experiment [2], 80 to 100% in experiment [3] and 80 to 100% in experiment [4].
As to `COc1cc(C(C)(F)F)cc(Oc2ccc(CCNc3ncnc4c(F)ccc(F)c34)cc2)n1` [Compound 11], the pest or weed control at 200 ppm in experiment [1] lay in the range of 80 to 100%; in experiment [2], 50 to 79%; in experiment [3] it was 80 to 100%; in experiment [4], 80 to 100%.
Turning to `CC(F)(F)c1ccnc(Oc2ccc(CCNc3ncnc4c(F)ccc(F)c34)cc2)c1` [Compound 12], the pest or weed control at 200 ppm in experiment [1], in experiment [2], in experiment [3] and in experiment [4] was 80 to 100% each time.
Regarding `COc1cc(CCNc2ncnc3c(F)ccc(F)c23)ccc1O` [Compound 14], the values for the pest or weed control at 200 ppm in experiment [1], in experiment [2] and in experiment [3] were 50 to 79%, 0 to 49% and 0 to 49%, respectively. In addition, the pest or weed control at 25 ppm in experiment [4] was in the range of 0 to 49%.
`COc1cc(CCNc2ncnc3c(F)ccc(F)c23)ccc1Oc1cc(C(C)(F)F)ccn1` [Compound 16]: the pest or weed control at 200 ppm in experiment [1], in experiment [2], in experiment [3] and in experiment [4] was 80 to 100% each time.
On to `COc1cc(C)c(CCNc2ncnc3c(F)ccc(F)c23)cc1C` [Compound 17], for which the pest or weed control at 200 ppm lay in the range of 80 to 100% in experiment [1], 50 to 79% in experiment [2], 80 to 100% in experiment [3] and 0 to 49% in experiment [4].
Consider `Cc1cc(CCNc2ncnc3c(F)ccc(F)c23)c(C)cc1O` [Compound 18], for which the pest or weed control at 200 ppm in experiment [1] lay within 0 to 49%; in experiment [2], 0 to 49%; in experiment [3] it was 50 to 79%; in experiment [4], 0 to 49%.
For the compound `Cc1cc(Oc2cc(C(F)(F)F)ccn2)c(C)cc1CCNc1ncnc2c(F)ccc(F)c12` [Compound 19], the pest or weed control at 200 ppm in experiment [1], in experiment [2], in experiment [3] and in experiment [4] was 80 to 100% each time.
As for `COc1ccc(CCNc2ncnc3c(F)ccc(F)c23)c(C)c1C` [Compound 20], the pest or weed control at 200 ppm in experiment [1] was in the range of 80 to 100%; in experiment [2] it was 50 to 79%; in experiment [3], 80 to 100%; in experiment [4], 50 to 79%.
For `COc1ccc(CCNc2ncnc3c(F)ccc(F)c23)cc1C` [Compound 21], the pest or weed control at 200 ppm lay in the range of 80 to 100% in experiment [1], 50 to 79% in experiment [2] and 50 to 79% in experiment [3]. For the same compound, the pest or weed control at 25 ppm in experiment [4] fell in the range of 0 to 49%.
Consider `Cc1c(O)ccc(CCNc2ncnc3c(F)ccc(F)c23)c1C` [Compound 23], for which the pest or weed control at 200 ppm in experiment [1] was 80 to 100%; in experiment [2] it was 50 to 79%; in experiment [3], 50 to 79%; in experiment [4], 0 to 49%.

Source of the values: patent US9000162B2, “5,8-difluoro-4-(2-(4-(heteroaryloxy)-phenyl)ethylamino)quinazolines and their use as agrochemicals” (Dow AgroSciences LLC, priority 2008, dated 2015).
